Results taken from patent US11926618B2, “Halogen-substituted phenylate compound and applications thereof” (HINOVA PHARMACEUTICALS INC., priority 2019, dated 2024).
Read-outs that look alike come from different tables or passages of the source.

Key:
[1] = biological target: T1, THR-β (Homo sapiens, UniProt P10828); assay: Agonistic activity on THR-β (TRβ-LBD/RXRα, biotin-SRC2-2 recruitment, fluorescence ratio 665 nm/615 nm); format: biochemical; details: for Selectivity THR-β/THR-α: THR-α EC50 ÷ THR-β EC50; for Agonistic activity for THR-β compared to control compound MGL-3196: in words, versus MGL-3196
T1 construct: A mixed solution of 4× TRα-LBD or TRβ-LBD and 4× RXRα was prepared
Protocol: (§1) 100× solutions of reference compounds or compounds were prepared with DMSO and then diluted in a 1:3 equal ratio. The gradient dilution of 100× reference compound or compound was further diluted to 4× with 1× reaction buffer and then added to the test plate. A mixed solution of 4× TRα-LBD or TRβ-LBD and 4× RXRα was prepared with 1× reaction buffer and added to the test plate. […] The plate was centrifuged at 1000 rpm for 1 min and then incubated at room temperature and in the dark for 4 h.

[2] = biological target: T2, THR-α (Homo sapiens, UniProt P10827); assay: Agonistic activity on THR-α (TRα-LBD/RXRα, biotin-SRC2-2 recruitment, fluorescence ratio 665 nm/615 nm); format: biochemical; details: for Agonistic activity for THR-α compared to control compound MGL-3196: in words, versus MGL-3196
T2 construct: A mixed solution of 4× TRα-LBD or TRβ-LBD and 4× RXRα was prepared
Protocol: as §1

[3] = Pharmacokinetic test in ICR mice, plasma concentration by LC/MS/MS; format: in vivo; details: for AUC(0-inf): read-out: Exposure AUCinf
Protocol: • Polyethylene glycol 400 (PEG400), manufacturer: Chengdu Kelong Chemical Reagent Factory; • Hydroxypropyl 3-cyclodextrin (HP-β-CD), manufacturer: Shanghai Dibai Chemical Technology Co., Ltd.; • HPC LF, manufacturer: Chengdu Yuannuo Tiancheng Technology Co., Ltd.; • Heparin sodium, manufacturer: Chengdu Kelong Chemical Reagent Factory. • Experimental animals: ICR mice (Chengdu Dossy Experimental Animals CO., LTD.) 2) Experimental Method
Preparation of Test Compound Solution
IV group: 1.15 mg of test compound was accurately weighed, and then DMA (0.228 ml) was added to dissolve the compound, to which were successively added PEG400 (1.139 ml) and 0.1 M of phosphate buffer (5.012 ml). Finally, 40% HP-B-CD was added to the final volume of 11.39 ml. The solution was thoroughly mixed by ultrasonic vortex. A clear solution at the concentration of 0.1 mg/ml was prepared.
PO group: 5.06 mg of test compound was precisely weighed, and then 2% HPC LF (containing 0.1% Tween-80) was added to the final volume of 20.04 ml. The solution was mixed by ultrasound, to prepare a uniform suspension at the concentration of 0.25 mg/ml.
After fasting overnight (free drinking water), nine adult ICR mice (3 mice for each time point) were administered by injection via tail vein and by gavage, respectively. For IV group, 5 min, 15 min, 0.5 h, 1 h, 2 h, 4 h, 8 h, 12 h and 24 h after administration, 0.1 ml of blood was collected from the submandibular vein, centrifuged at 4° C. for 5 min to separate the plasma, and stored at −20° C. for detection. For PO group, before administration and 0.5 h, 1 h, 2 h, 4 h, 6 h, 8 h, 12 h and 24 h after administration, 0.1 ml of blood was collected from the submandibular vein, and the processing was the same as that of IV group.
Then, the concentration of original drug in plasma was determined by LC/MS/MS. The plasma concentration-time curve was plotted, and the main pharmacokinetic parameters were calculated with WinNonlin 6.3 software (see Table 2).

T2 sequence (P10827 163-410 isoform P10827-2 limits assumed, other chains not shown): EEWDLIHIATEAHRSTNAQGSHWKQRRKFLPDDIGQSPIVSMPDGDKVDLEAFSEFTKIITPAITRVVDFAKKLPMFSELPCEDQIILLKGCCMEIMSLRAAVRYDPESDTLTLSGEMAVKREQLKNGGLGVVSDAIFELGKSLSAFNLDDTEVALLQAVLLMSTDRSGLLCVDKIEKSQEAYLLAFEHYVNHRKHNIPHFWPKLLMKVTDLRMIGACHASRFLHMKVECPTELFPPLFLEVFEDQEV
T2 sequence (P19793 whole entry partner, other chains not shown, the tested form may be a part): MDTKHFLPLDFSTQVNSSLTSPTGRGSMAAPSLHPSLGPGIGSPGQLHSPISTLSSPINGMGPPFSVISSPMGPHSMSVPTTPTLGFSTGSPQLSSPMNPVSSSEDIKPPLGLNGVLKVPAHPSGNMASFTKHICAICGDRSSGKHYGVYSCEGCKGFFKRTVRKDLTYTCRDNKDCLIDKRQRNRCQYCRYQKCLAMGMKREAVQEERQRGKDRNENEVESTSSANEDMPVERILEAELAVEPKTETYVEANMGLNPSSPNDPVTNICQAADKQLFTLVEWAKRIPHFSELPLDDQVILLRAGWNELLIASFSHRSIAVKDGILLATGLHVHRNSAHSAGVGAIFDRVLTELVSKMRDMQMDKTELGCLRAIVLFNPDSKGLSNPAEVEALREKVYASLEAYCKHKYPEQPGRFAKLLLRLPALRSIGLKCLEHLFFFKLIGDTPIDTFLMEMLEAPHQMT
T1 sequence (P10828 217-461 limits assumed, other chains not shown): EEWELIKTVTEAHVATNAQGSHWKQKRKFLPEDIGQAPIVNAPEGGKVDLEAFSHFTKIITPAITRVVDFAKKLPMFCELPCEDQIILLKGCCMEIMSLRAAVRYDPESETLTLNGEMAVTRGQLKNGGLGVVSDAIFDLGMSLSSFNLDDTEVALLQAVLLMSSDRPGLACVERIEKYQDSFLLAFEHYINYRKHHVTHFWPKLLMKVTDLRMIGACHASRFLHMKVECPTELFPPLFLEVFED
T1 sequence (P19793 whole entry partner, other chains not shown, the tested form may be a part): as the sequence (P19793 whole entry partner, other chains not shown, the tested form may be a part) above

| EC50 [1] [nM] | Selectivity THR-β/THR-α [1] | EC50 [2] [nM] | AUC(0-inf) ([3]; ICR, mouse, plasma, dosage 5 mg/kg, route not given) [ng·h/mL] | Peak time Tmax ([3]; dosage 5 mg/kg, route not given) [h] | AUC(0-inf) ([3]; ICR, mouse, plasma, dosage 2 mg/kg, route not given) [ng·h/mL] | half-life ([3]; ICR, mouse, plasma, dosage 2 mg/kg, route not given, read-out: Half-life T1/2 (converted)) [h] | Cmax ([3]; ICR, mouse, plasma, dosage 2 mg/kg, route not given, read-out: Peak concentration Cmax) [ng/mL] | Tmax ([3]; ICR, mouse, plasma, dosage 2 mg/kg, route not given, read-out: Peak time Tmax) [h] | Half-life compared to MGL-3196 ([3]; compound at a lower dose, in words) | Compound | Agonistic activity for THR-β compared to control compound MGL-3196 [1] | Agonistic activity for THR-α compared to control compound MGL-3196 [2] |
| --- | --- | --- | --- | --- | --- | --- | --- | --- | --- | --- | --- | --- |
| 30 | 27 | 800 | – | – | – | – | – | – | – | CC(C)c1cc(Oc2c(Br)cc(-n3nc(C#N)c(=O)[nH]c3=O)cc2Br)n[nH]c1=O [Compound 13, 2-(3,5-Dibromo-4-((5-isopropyl-6-oxo-1,6-dihydropyridazin-3-yl)oxy)phenyl)-3,5-dioxy-2,3,4,5-tetrahydro-1,2,4-triazine-6-nitrile] | significantly higher agonistic activities | significantly higher agonistic activities |
| 57 | – | 1020 | – | – | – | – | – | – | – | CC(C)c1cc(Oc2c(Cl)cc(-n3nc(C#N)c(=O)[nH]c3=O)cc2Br)n[nH]c1=O [Compound 1, 2-(3-bronco-5-chloro-4-((5-isopropyl-6-oxo-1,6-dihydropyridazin-3-yl)oxy)phenyl)-3,5-dioxo-2,3,4,5-tetrahydro-1,2,4-triazine-6-nitrile] | significantly higher agonistic activities | significantly higher agonistic activities |
| – | – | – | 9360 | 2 | – | – | – | – | – | CC(C)c1cc(Oc2c(Cl)cc(-n3nc(C#N)c(=O)[nH]c3=O)cc2Cl)n[nH]c1=O [MGL-3196, reference compound] | – | – |
| 52 | – | 1060 | – | – | 9260 | 5.25 | 960 | 4 | longer | [2H]C([2H])([2H])C(c1cc(Oc2c(Cl)cc(-n3nc(C#N)c(=O)[nH]c3=O)cc2Br)n[nH]c1=O)C([2H])([2H])[2H] [Compound 2, 2-(3-bromo-5-chloro-4-((5-di(trideuteromethyl)methyl-6-oxo-1,6-dihydropyridazine-3-yl)oxy)phenyl)-3,5-dioxo-2,3,4,5-tetrahydro-1,2,4-triazine-6-nitrile] | – | – |

The next lines start with the molecule.

| Compound | EC50 [1] [nM] | Selectivity THR-β/THR-α [1] | EC50 [2] [nM] | AUC(0-inf) ([3]; ICR, mouse, plasma, dosage 5 mg/kg, route not given) [ng·h/mL] | Peak time Tmax ([3]; dosage 5 mg/kg, route not given) [h] | AUC(0-inf) ([3]; ICR, mouse, plasma, dosage 2 mg/kg, route not given) [ng·h/mL] | half-life ([3]; ICR, mouse, plasma, dosage 2 mg/kg, route not given, read-out: Half-life T1/2 (converted)) [h] | Cmax ([3]; ICR, mouse, plasma, dosage 2 mg/kg, route not given, read-out: Peak concentration Cmax) [ng/mL] | Tmax ([3]; ICR, mouse, plasma, dosage 2 mg/kg, route not given, read-out: Peak time Tmax) [h] | Half-life compared to MGL-3196 ([3]; compound at a lower dose, in words) | Agonistic activity for THR-β compared to control compound MGL-3196 [1] | Agonistic activity for THR-α compared to control compound MGL-3196 [2] |
| --- | --- | --- | --- | --- | --- | --- | --- | --- | --- | --- | --- | --- |
| [2H]c1c(Oc2c(Cl)cc(-n3nc(C#N)c(=O)[nH]c3=O)cc2Br)n[nH]c(=O)c1C(C([2H])([2H])[2H])C([2H])([2H])[2H] [Compound 3, 2-(3-bromo-5-chloro-4-((4-deutero-5-(1,1,1,3,3,3-hexadeuteropropyl-2-yl)-6-oxo-1,6-dihydropyrazin-3-yl)oxy)phenyl)-3,5-dioxy-2,3,4,5-tetrahydro-1,2,4-triazine-6-nitrile] | 60 | – | 1330 | – | – | – | – | – | – | – | significantly higher agonistic activities | – |
| [2H]c1c(Oc2c(Br)cc(-n3nc(C#N)c(=O)[nH]c3=O)cc2Br)n[nH]c(=O)c1C(C([2H])([2H])[2H])C([2H])([2H])[2H] [Compound 15, 2-(3,5-dibromo-4-((6-oxo-5-(propan-2-yl-1,1,1,3,3,3-d6)-1,6-dihydropyridazin-3-yl-4-d)oxy)phenyl)-3,5-dioxy-2,3,4,5-tetrahydro-1,2,4-triazine-6-nitrile] | 19 | 18 | 349 | – | – | – | – | – | – | – | significantly higher agonistic activities | significantly higher agonistic activities |
| [2H]C([2H])([2H])C(c1cc(Oc2c(Br)cc(-n3nc(C#N)c(=O)[nH]c3=O)cc2Br)n[nH]c1=O)C([2H])([2H])[2H] [Compound 14] | 27 | 12 | 326 | – | – | – | – | – | – | – | significantly higher agonistic activities | significantly higher agonistic activities |
